From US20090036492A1, “Novel Cercosporamide Derivative” (priority 2005, published 2009)

Each compound was assayed on male KK mice (assay: Blood glucose lowering effect in diabetic KK mice). Conditions: Mus musculus, po, 72 h, 15 to 20 weeks old, feed containing 0.03% of the compound, three days, blood glucose on the 3rd day vs control group, read-out: Blood glucose lowering efficacy (%).
Type: in vivo
Excerpt: Six-week-old male KK mice were purchased from CLEA Japan, Inc. and then were fed until 15 to 20 weeks old and affected with diabetes. The mice were individually fed during the adaptation period and the test period, and water and feed (FR2, Funabashi Farm) were freely ingested.
At the start of the experiment, after body weight measurement, blood was collected from the tail vein of the mice into a heparin-coated glass tube and centrifuged, and then plasma was separated. The glucose level in the plasma was measured by Glucoloader GXT (A&T Corp.), and individuals having a blood glucose level of about 350 mg/dl or more were selected. Groups each having 3 to 4 mice were used for the experiment, and the mice were grouped to make the average body weight and the average blood glucose level similar. Each compound was administered to a compound administration group by feeding a mixture with feed containing 0.03% of the compound. A separate group in which the mice were fed only with feed was a control group.
The experiment period (drug administration period) was three days. The grouping day was the 0th day. On the 3rd day, body weight was measured and blood was collected from the tail vein to measure the blood glucose level.
The blood glucose lowering efficacy was determined by the following formula.
Blood glucose lowering efficacy=[(Control group blood glucose level−Compound administration group blood glucose level)/Control group blood glucose level]×100
CCc1ccc2cc(F)c(F)cc2c1CNC(=O)c1c(OC)cc(O)c2c1OC1=CC(O)=C(C(C)=O)C(=O)[C@]12C [Example 188, (9aS)-8-Acetyl-N-[(2-ethyl-6,7-difluoro-1-naphthyl)methyl]-1,7-dihydroxy-3-methoxy-9a-methyl-9-oxo-9,9a-dihydrodibenzo[b,d]furan-4-carboxamide] gave an inhibition in vivo at 0.03 % in feed of 57%. With CCc1ccc2ccc(F)c(F)c2c1CNC(=O)c1c(OC)cc(O)c2c1OC1=CC(O)=C(C(C)=O)C(=O)[C@]12C [Example 193, (9aS)-8-Acetyl-N-[(2-ethyl-7,8-difluoro-1-naphthyl)methyl]-1,7-dihydroxy-3-methoxy-9a-methyl-9-oxo-9,9a-dihydrodibenzo[b,d]furan-4-carboxamide] the inhibition in vivo at 0.03 % in feed was 50%. With CCc1cc(F)c2ccc(C)cc2c1CNC(=O)c1c(OC)cc(O)c2c1OC1=CC(O)=C(C(C)=O)C(=O)[C@]12C [Example 189, (9aS)-8-Acetyl-N-[(2-ethyl-4-fluoro-7-methyl-1-naphthyl)methyl]-1,7-dihydroxy-3-methoxy-9a-methyl-9-oxo-9,9a-dihydrodibenzo[b,d]furan-4-carboxamide] the inhibition in vivo at 0.03 % in feed was 47%. For CC#CCOc1cc(C)c(CNC(=O)c2c(OC)cc(O)c3c2OC2=CC(O)=C(C(C)=O)C(=O)[C@]23C)c(C)c1 [Example 97, (9aS)-8-Acetyl-N-[4-(2-butynyloxy)-2,6-dimethylbenzyl]-1,7-dihydroxy-3-methoxy-9a-methyl-9-oxo-9,9a-dihydrodibenzo[b,d]furan-4-carboxamide], the inhibition in vivo at 0.03 % in feed was 53%. With COc1cc(O)c2c(c1C(=O)NCc1ccc(Oc3ccc(Cl)cc3)c3ccccc13)OC1=CC(O)=C(C(C)=O)C(=O)[C@]12C [Example 167, (9aS)-8-Acetyl-N-{[4-(4-chlorophenoxy)-1-naphthyl]methyl}-1,7-dihydroxy-3-methoxy-9a-methyl-9-oxo-9,9a-dihydrodibenzo[b,d]furan-4-carboxamide] the inhibition in vivo at 0.03 % in feed was 30%. Compound COc1cc(O)c2c(c1C(=O)NCc1c(C)c(C)cc3ccccc13)OC1=CC(O)=C(C(C)=O)C(=O)[C@]12C [Example 54, (9aS)-8-Acetyl-1,7-dihydroxy-3-methoxy-9a-methyl-N-[(2,3-dimethyl-1-naphthyl)methyl]-9-oxo-9,9a-dihydrodibenzo[b,d]furan-4-carboxamide] has an inhibition in vivo at 0.03 % in feed of 34%. Work on CCc1ccc2ccc(Cl)cc2c1CNC(=O)c1c(OC)cc(O)c2c1OC1=CC(O)=C(C(C)=O)C(=O)[C@]12C [Example 186, (9aS)-8-Acetyl-N-[(7-chloro-2-ethyl-1-naphthyl)methyl]-1,7-dihydroxy-3-methoxy-9a-methyl-9-oxo-9,9a-dihydrodibenzo[b,d]furan-4-carboxamide] yielded an inhibition in vivo at 0.03 % in feed of 53%. C=CCO/N=C(\C)C1=C(O)C=C2Oc3c(C(=O)NCc4c(C)cc(NS(=O)(=O)c5ccc(Cl)cc5Cl)cc4C)c(OC)cc(O)c3[C@]2(C)C1=O [Example 162, (9aS)-8-[(1E)-N-(Allyloxy)ethaneimidoyl]-N-(4-{[(2,4-dichlorophenyl)sulfonyl]amino}-2,6-dimethylbenzyl)-1,7-dihydroxy-3-methoxy-9a-methyl-9-oxo-9,9a-dihydrodibenzo[b,d]furan-4-carboxamide] gave an inhibition in vivo at 0.03 % in feed of 43%.
